Measurements published in US20070098787A1, “Composition for preventing and treating varicose veins of lower extremities” (MOCHIDA PHARMACEUTICAL CO., LTD., priority 2003, published 2007).

Tested on: varicose veins of lower extremities
Test: Case report: patient with varicose veins of lower extremities, Dorner replaced with EPADEL S
Assay type: in vivo, human
Details: person
Method: A person diagnosed with hypertension, diabetes, hyperlipidemia, and varicose veins of lower extremities (serious conditions with multiple dilatations, winding varices, and skin pigmentation in both legs) was administered with Dorner (trade name; manufactured by Toray Industries, Inc.; generic name, beraprost sodium; a therapeutic agent for chronic artery occlusion) in expectation of therapeutic effect on varicose veins of lower extremities together with Adalat L (trade name; manufactured by Bayer; generic name, nifedipine; coronary vasodilator), Basen (trade name; manufactured by Takeda Pharmaceutical Company Limited; generic name, voglibose; α-glucosidase inhibitor), Lochol (trade name; manufactured by Ciba Geigy Japan Ltd.; generic name, fluvastatin sodium; HMG-CoA reductase inhibitor), and NU-LOTAN (trade name; manufactured by Banyu Pharmaceutical Co., Ltd.; generic name, losartan potassium; angiotensin II receptor antagonist). […] Accordingly, Dorner was replaced with EPADEL S (trade name; manufactured by Mochida Pharmaceutical Co., Ltd.; generic name, ethyl eicosapentate (EPA-E)) at a dose of 600 mg×3 packets per day. […] The skin pigmentation also disappeared. […] No therapeutic method was changed except the change of the drug from Dorner to EPADEL S.

[1] = 600 mg×3 packets per day, after about 1 month, Dorner replaced, other medication unchanged

Row | SMILES | improvement in the varicose veins of lower extremities (serious conditions in both legs, Dorner given together with Adalat L, Basen, Lochol and NU-LOTAN, after the medication) | adverse event presumably caused by the drug (600 mg×3 packets per day, about 1 month) | skin pigmentation (600 mg×3 packets per day, after about 1 month) | varicose veins in the left leg [1] | varicose veins in the right leg [1]
1 | CC#CCC(C)[C@H](O)/C=C/[C@@H]1[C@H]2c3cccc(CCCC(=O)O)c3O[C@H]2C[C@H]1O (mixture of isomers) [Dorner, beraprost sodium] | No improvement | – | – | – | –
2 | CC/C=C\C/C=C\C/C=C\C/C=C\C/C=C\CCCC(=O)OCC [EPADEL S, ethyl eicosapentate] | – | No adverse event | disappeared | substantial improvement | substantial disappearance
